In US7807654B2, “Compositions and methods for treatment of mitochondrial diseases” (Wellstat Therapeutics Corporation, priority 1998, dated 2010):

How the values were obtained:
3NP treated mice [1] = test: 3-nitropropionic acid (3NP) model of epilepsy; assay type: in vivo, CD-1 mice; details: for Latency to clonic seizure: mean ± SEM
Excerpt: 3-nitropropionic acid (3NP) is a mitochondrial toxin that acts by inhibiting Complex II of the respiratory chain; it is used to induce brain lesions similar to those characteristic of Huntington's disease. Seizures can also be induced by the use of 3NP as a model of epilepsy and mitochondrial dysfunction. Urbanska et al., Eur J Pharmacol, 359: 55-8 (1998). Male CD-1 mice (National Cancer Institute, NCI, Frederick. Md.) weighing between […] were used throughout. Mice were divided into groups of 5 and animals for each group were randomly chosen from different cages to avoid possible influence of age. The mice were maintained on a 12 hr light dark cycle with free access to water and food. All experiments were performed during the light period between 9:00 and 16:00 hr. Mice (n=17-20) were given 160 mg/kg 3NP and followed for seizures. 3NP was made up at 16 mg or 18 mg/ml in sterile water (pH: 7.4). 3NP was administered i.p. in a volume of 0.1 m/10 g body weight. […] Seizures were assessed similar to the methods previously described (Roberts & Keith, J Pharmacol Exp Ther, 270:505-11, 1994; Urbanska et al., Eur J Pharmacol, 359:55-8, 1998).
Behavioral observations were performed within 120 min following application of 3-NP. Three major categories of convulsive seizure response were been considered and recorded: • 1. Clonic movements: the movements of the forelimbs accompanied by facial twitching; • 2. Explosive clonic movements: the movement of all four limbs involving running, jumping and bouncing; • 3. Tonic response: including tonic flexion and tonic extension of the all four limbs.
Mortality rate was evaluated at 120 min after 3NP injection.

taxol-treated mice = test: Taxol-induced neuropathy, tail-flick latency; assay type: in vivo; details: nine days after initiation of taxol 21.6 mg/kg/day i.p. for 6 days; oral triacetyluridine 4000 mg/kg b.i.d.
Method: Two groups of 10 mice each were treated with taxol, 21.6 mg/kg/day for 6 consecutive days by intraperitoneal injection. An additional group of 10 mice received injections of vehicle alone. One of the groups of taxol-treated mice received oral triacetyluridine, 4000 mg/kg b.i.d. Nine days after the initiation of taxol treatments, nociceptive sensory deficits were tested by determining tail-flick latency after exposure of the tip of the tail to focused thermal radiation with an infrared heat lamp. In this system, delays in the tail-flick response to radiant heat correlate with sensory nerve deficits.

[2] = system: mice infused with sodium azide; test: Subcutaneous azide infusion: mortality, body weight, TUNEL staining; set-up: species or system C57/BL/6N mice; details: mouse, in vivo
MPTP treated mice [3] = test: MPTP model of Parkinson's disease, first study
[4] = system: mice given intrastriatal QA; test: Quinolinic acid (QA) model of excitotoxicity; assay type: in vivo, Swiss mice; details: TAU 4 g/kg bw p.o. b.i.d.
3NP treated mice [5] = test: 3-nitropropionic acid (3NP) model of Huntington's disease; assay type: in vivo, Swiss mice; details: at anytime during the study
Method: Male 6-8 month old Swiss mice (National Cancer Institute; NCI, Frederick, Md.) were treated with 3NP (65 mg/kg i.p.) daily for 4 days to induce mortality, neuronal cell loss and behavioral impairment with n=8/group. […] On day 9, the mice were perfuse fixed with 10% buffered formalin and processed for silver staining to detect neuronal damage. […] There was no mortality in the 3NP+TAU group, but 3 of 8 mice died in the vehicle+3NP group.
Behavioral scoring of the 3NP treated mice was to determine whether there was any motor impairment at anytime during the study. There were 88% of the control+3NP treated mice with behavioral impairment indicated by gross observation. A decreased incidence of impairment of only 50% was found in the TAU+3NP treated mice.
The silver staining was analyzed by a pathologist blinded to the identity of tissue samples. […] However, in the control+3NP treated mice, silver staining of synaptic terminals in the striatal area (caudate/putamen area) and substantia nigra was pronounced. Silver impregnation of axons and/or synaptic terminals in the thalamus, deep mesencephalon and/or reticular formation (medulla) was also found in […] of the control+3NP treated mice. The substantia nigra projects to the striatum and these areas are especially vulnerable to damage by 3NP. The damage to the substantia nigra and striatum was prevented by TAU.

MPTP treated mice [6] = test: MPTP model of Parkinson's disease, second study; assay type: in vivo, C57/BL6 mice; details: MPTP b.i.d. for 2 days, sacrificed on day 9, mean ± SEM
Method: A second study using MPTP (25 mg/kg i.p. b.i.d. for 2 days) was performed. […] TAU or vehicle was given orally (dose of TAU=4 g/kg bw b.i.d.) starting the day before MPTP administration and ending on day 8. Mice were sacrificed on day 9.

[7] = system: child with epilepsy, ataxia, language delay, fat intolerance, dicarboxylic aciduria; test: Treatment of developmental delay (case, Example 4); assay type: in vivo, human; details: daily dose of 0.1 to 0.3 g/kg/day
Method: A child with epilepsy, ataxia, language delay, and fat intolerance, and dicarboxylic aciduria was treated with triacetyluridine at a daily dose of 0.1 to 0.3 g/kg/day.

[8] = 160 mg/kg 3NP i.p., TAU 4 g/kg p.o. 2 hours prior, within 120 min

CC(=O)OC[C@H]1O[C@@H](n2ccc(=O)[nH]c2=O)[C@H](OC(C)=O)[C@@H]1OC(C)=O [TAU, triacetyluridine]
Latency to clonic seizure (3NP treated mice [1]; 160 mg/kg 3NP i.p., TAU 4 g/kg p.o. 2 hours prior): 40.8 min | Latency to clonic seizure (3NP treated mice [1]; 160 mg/kg 3NP i.p., TAU 4 g/kg p.o. 2 hours prior, listed as TAU + 3NP): 40.8 ± 4.9 min | % Clonic seizures (3NP treated mice [1]; [8]): 70.6% | % Running seizures (3NP treated mice [1]; [8]): 5.9% | % Mortality (3NP treated mice [1]; at 120 min after 3NP injection): 11.8% | Tail flick latency (taxol-treated mice): 11.9 ± 0.7 s | mortality due to 60 μg/hr azide infusion [2]: 30% | mortality (MPTP treated mice [3]; MPTP 30 mg/kg i.p. b.i.d. for 1.5 days, TAU 4 g/kg p.o. b.i.d.): 28.6% | Striatal DA, MPTP-treated mice (MPTP treated mice [3]; first study, eight days after stopping MPTP, mean ± SEM): 37.9 ± 7.4 ng DA/mg protein | percent of mice surviving the 7 days ([4]; 50 nmoles QA bilaterally in striatum): 73% | percent of mice surviving the 7 days ([4]; 100 nmoles QA bilaterally in striatum): 19% | mice with behavioral (motor) impairment by gross observation (3NP treated mice [5]): 50% | Striatal DA, MPTP-treated mice (MPTP treated mice [6]): 26.7 ± 0.9 ng DA/mg protein | decline in seizure frequency [7]: 50%
